Assay results taken from patent US8658131B2, “Compounds comprising 4-benzoylpiperidine as a sigma-1-selective ligand” (Washington University, priority 2010, dated 2014).

Experiments:
σ1 receptors = target: T1, σ1 receptors (Mus musculus, UniProt O55242); assay: Ex vivo autoradiography of [11C]14e in mice; settings: 30 min post-injection
T1 construct: Ex vivo autoradiography studies were also conducted in mice; from tissue; host or cells: mouse brain (living animal, ex vivo autoradiography)
Experimental: (§1) Radiosynthesis of [^11C] […] Tissue samples were taken and converted to % ID/g for each organ. Ex vivo autoradiography studies were also conducted in mice at 30 min post-injection of the radiotracer. A microPET imaging study was also performed on a male cynomolgus monkey.

[1] = Biodistribution of [11C]14e in mice; format: in vivo
Experimental: as §1

T1 sequence (O55242 whole entry): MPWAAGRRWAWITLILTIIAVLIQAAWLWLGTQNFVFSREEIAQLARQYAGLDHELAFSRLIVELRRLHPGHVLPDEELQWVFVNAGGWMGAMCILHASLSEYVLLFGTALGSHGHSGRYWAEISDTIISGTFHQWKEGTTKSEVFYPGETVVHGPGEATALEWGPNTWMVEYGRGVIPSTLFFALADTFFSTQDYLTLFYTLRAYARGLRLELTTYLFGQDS

For `[11CH3]Oc1ccc(C(=O)C2CCN([C@@H]3CCN(Cc4ccc(F)cc4)C[C@H]3O)CC2)cc1` [[^11C]14e, ((3′R,4′R)-1′-(4-fluorobenzyl)-3′-hydroxy-1,4′-bipiperidin-4-yl)(4-[^11C]methoxyphenyl)methanone], the “distribution in brain by autoradiography” value (σ1 receptors) was “consistent with the distribution of σ1 receptors in brain”, the “regional brain uptake, cerebellum” value ([1]; 5 min post-injection) was 6.34±0.05 % ID/g and the “regional brain uptake, cortex” value ([1]; 5 min post-injection) was 6.69±0.72 % ID/g. For the same compound, the “regional brain uptake, hippocampus” value ([1]; 5 min post-injection) was 5.41±0.30 % ID/g, the “regional brain uptake, striatum” value ([1]; 5 min post-injection) was 6.63±0.56 % ID/g and the clearance from brain ([1]; high between 5 and 30 min, washed out between 30 and 60 min) was “suitable clearance from brain”.
